Measurements: PubChem BioAssay AID1996
≈ marks a conversion by molar mass, not a printed value.

Conditions: buffer; pH 7.4; 200.0 µM

SMILES	solubility kinetic
Cn1c(SCC(=O)NC2CCCC2)nnc1-c1ccncc1	> 47.6 µg/mL
CN(C)C(CNC(=O)c1cc(-c2ccco2)nc2ccccc12)c1ccccc1 (centres undefined)	33.9 µg/mL (≈ 87.9 µM)
CCn1c(/C=C/c2ccccc2Cl)nc2ccccc2c1=O	1.7 µg/mL (≈ 5.47 µM)
COc1cc(NC(=O)CSc2nncn2C)cc(OC)c1OC	> 50.8 µg/mL
CCOC(=O)CN1C(=O)S/C(=C\c2ccc(-c3cccc(C(=O)O)c3C)o2)C1=O	56.9 µg/mL (≈ 137 µM)
CCC(=O)c1cn(CCOc2ccccc2OC)c2ccccc12	2.2 µg/mL (≈ 6.8 µM)
O=C(O)CN1C(=O)c2ccc(Oc3ccc([N+](=O)[O-])cc3)cc2C1=O	> 51.3 µg/mL
O=C(COc1ccc(F)cc1Br)NCC1(N2CCCCC2)CCCCC1	55 µg/mL (≈ 129 µM)
CCn1c(C(=O)NC2CCC(C)CC2)cc2sccc21 (centres undefined)	0.7 µg/mL (≈ 2.41 µM)
NS(=O)(=O)c1ccc(NC(=O)COC(=O)c2ncc(Cl)c(Cl)c2Cl)cc1	54.7 µg/mL (≈ 125 µM)
O=c1oc2ccccc2n1Cc1cccc(C(F)(F)F)c1	2.2 µg/mL (≈ 7.5 µM)
O=C(COC(=O)c1ccc(F)cc1)NCCCc1ccccc1	5.9 µg/mL (≈ 18.7 µM)
CC(C)OC(=O)CSc1nc2c(cc1C#N)CCCCC2	< 0.3 µg/mL
CCN1C(=O)C(O)(CC(=O)c2c(C)coc2C)c2ccccc21 (centres undefined)	> 47 µg/mL
CC1=C(C(=O)OCCOC(C)C)C(c2cccc3ccccc23)NC(=O)N1 (centres undefined)	4.6 µg/mL (≈ 12.5 µM)
O=C(CCN1CCN(CCO)CC1)Nc1ccc(Br)cc1	> 53.4 µg/mL
COc1ccccc1OCC(=O)NC1CCCCCCC1	40.8 µg/mL (≈ 140 µM)
Cc1ccc(S(=O)(=O)NCCC(=O)NC2CCCCCC2)cc1C	> 52.9 µg/mL
COC(=O)CCCCCCCCC(O)CN(C)C (centres undefined)	27.7 µg/mL (≈ 107 µM)
CN1CCC(=C(c2ccccc2)c2ccc(Br)cc2)CC1.Cl	53.1 µg/mL
CC(C)OCCCNc1ncnc2c1nc1n2CCCC1	> 43.4 µg/mL
CC(C)(C)OC(=O)N1CCN(C(=O)c2cccnc2Cl)CC1	> 48.9 µg/mL
CCCCN(C(=O)C1CC1)C1CCS(=O)(=O)C1 (centres undefined)	> 38.9 µg/mL
Cc1ccc(NC(=O)COc2ccccc2)cc1Cl	2.4 µg/mL (≈ 8.7 µM)

SMILES	solubility kinetic
COc1ccc2nc(N(CCN(C)C)C(=O)c3ccc4ccccc4c3)sc2c1.Cl	24.9 µg/mL
CN(CC(=O)Nc1cccc(Cl)c1)C1=NS(=O)(=O)c2ccccc21	3.7 µg/mL (≈ 10.2 µM)
Cc1cc(C(=O)NC2CCCCC2)c2cc(F)ccc2n1	19.6 µg/mL (≈ 68.4 µM)
Cc1csc(SCC(=O)NC(C)C2CC3CCC2C3)n1 (centres undefined)	> 46.6 µg/mL
FC(F)Oc1ccc(NC(=S)NCc2nc3ccccc3[nH]2)cc1	> 52.3 µg/mL
CC(C)(C)N1C(=O)NC(=O)/C(=C\c2ccc3c(c2)CCN3CCCCl)C1=O	38 µg/mL (≈ 97.5 µM)
COc1ccc(CCC(=O)NC2CCCc3ccccc32)cc1OC (centres undefined)	47.5 µg/mL (≈ 140 µM)
O=C(Nc1ccccc1)C1COc2ccccc2O1 (centres undefined)	30.1 µg/mL (≈ 118 µM)
Cc1cccc(N2CCN(C(=O)/C=C/c3cccs3)CC2C)c1 (centres undefined)	22.8 µg/mL (≈ 69.8 µM)
CC(=O)Nc1nc2ccccc2n1Cc1ccccc1Cl	5.2 µg/mL (≈ 17.3 µM)
Cc1nccc(-c2cccc(NC(=O)Nc3ccc(Cl)cc3)c2)n1	0.6 µg/mL (≈ 1.77 µM)
COc1ccc(C2c3ccsc3CCN2C(C)=O)cc1 (centres undefined)	32.2 µg/mL (≈ 112 µM)
CCCc1nnc(NC(=O)CCC(=O)NC2CC2)s1	> 42.4 µg/mL
Cc1ccccc1CN(C)C(C)C(=O)Nc1ccccc1F (centres undefined)	8.1 µg/mL (≈ 27 µM)
COc1ccc(NS(=O)(=O)c2cc(NC(=O)c3cncc(Br)c3)ccc2OC)cc1	21.9 µg/mL (≈ 44.5 µM)
COc1cc(C)c(S(=O)(=O)NCCCn2ccnc2)cc1C	39.6 µg/mL (≈ 122 µM)
CCCc1cc(=O)[nH]c(SCC(=O)Nc2c(C)n(C)n(-c3ccccc3)c2=O)n1	> 62 µg/mL
COc1cc(/C=C\C(=O)O)cc(S(=O)(=O)N2CCCCCC2)c1OC	52.8 µg/mL (≈ 143 µM)
O=C(c1cccc(Cl)c1)N1CCN(Cc2ccccc2)CC1	47.1 µg/mL (≈ 150 µM)
Cn1cccc1C(=O)OCC(=O)Nc1ccc2c(c1)OCO2	17.4 µg/mL (≈ 57.6 µM)
O=C(CCCN1C(=O)/C(=C\c2ccccc2)SC1=S)N1CCOCC1	9.8 µg/mL (≈ 26 µM)
COC(=O)c1sc(NC(=O)c2c(F)cccc2F)c(C#N)c1C	7.2 µg/mL (≈ 21.4 µM)
O=C(NNC1CC(=O)N(c2ccccc2)C1=O)c1cccnc1 (centres undefined)	> 46.5 µg/mL
CCOc1ncccc1C(=O)OCC(=O)NCc1ccc(C(=O)OC)cc1	> 55.9 µg/mL

SMILES	solubility kinetic
COc1ccccc1CNc1nc(C)c(C(=O)N(C)C)s1	> 45.8 µg/mL
CN1C(=O)c2ccc(C(=O)Nc3ccccc3O)cc2C1=O	13.1 µg/mL (≈ 44.2 µM)
CCOc1ccccc1CN1C2CCC1CC(c1ccc(C)cc1)C2 (centres undefined)	35 µg/mL (≈ 104 µM)
COc1ccccc1NC(=O)CCNC(=O)c1ccc(C)cc1	> 46.9 µg/mL
COc1cccc(OC)c1C(=O)Nc1cccc(S(=O)(=O)Nc2ccccc2Cl)c1	47.1 µg/mL (≈ 105 µM)
COc1ccccc1CC(=O)N1CCN(c2ccc(F)cc2)CC1	> 49.3 µg/mL
Nc1cccc(-n2cccc2)c1	18.2 µg/mL (≈ 115 µM)
CNC(=O)Nc1cccc(-c2cc(-c3c(Cl)cccc3Cl)no2)c1	< 0.3 µg/mL
COc1cccc(NC(=S)Nc2cc(C)cc(C)n2)c1	0.3 µg/mL (≈ 1.04 µM)
O=c1sc2ccccc2c(N2CCCCC2)c1[N+](=O)[O-]	20.4 µg/mL (≈ 70.3 µM)
COc1ccc(C2Nc3ccccc3C(=O)N2NC(C)=O)cc1OC (centres undefined)	> 51.2 µg/mL
O=C(Nc1ccc2ccccc2n1)C1CCCCC1	26.6 µg/mL (≈ 105 µM)
Cc1ccc(C(=O)NCCCNC(=O)COc2ccc(C)c(C)c2)cn1	49.1 µg/mL (≈ 138 µM)
O=C(NCC(=O)N1CCCC1)c1ccc(Br)o1	> 45.2 µg/mL
Fc1ccc(CNC(=S)NCc2ccccc2)cc1	11 µg/mL (≈ 40.1 µM)
N=C(N)N1CCN(Cc2ccccc2)CC1.O=S(=O)(O)O	6.7 µg/mL
O=C(C#Cc1ccccc1)NCc1ccccc1F	8.1 µg/mL (≈ 32 µM)
N#Cc1nc(-c2cccc3ccccc23)oc1NCC1CCCO1 (centres undefined)	3.3 µg/mL (≈ 10.3 µM)
O=C(c1ccco1)N1CCN(c2ccc([N+](=O)[O-])cn2)CC1	18.3 µg/mL (≈ 60.5 µM)
N#Cc1ccc(OCC(=O)NNC(=S)NC(=O)C2CC2)cc1	> 47.8 µg/mL
O=C(CC(=O)c1ccccc1)Nc1ccccc1C(F)(F)F	43.7 µg/mL (≈ 142 µM)
CCc1ccc(NC(=O)C2CCCN2C(=O)NC2CCCCC2)cc1 (centres undefined)	1.1 µg/mL (≈ 3.2 µM)
COc1cc(C(=O)NC(C)C2CC3CCC2C3)cc(OC)c1OC (centres undefined)	9.8 µg/mL (≈ 29.4 µM)
O=C(CN1CCCCCC1)Nc1cccc([N+](=O)[O-])c1	> 41.6 µg/mL

SMILES	solubility kinetic
CC(C)N(Cc1ccccc1)S(=O)(=O)c1cccs1	13 µg/mL (≈ 44 µM)
Cn1c(=O)c2c(nc(NN=C3CCCC3)n2C)n(C)c1=O	> 43.5 µg/mL
O=C1NC(c2ccccc2)Oc2ccccc21 (centres undefined)	22.9 µg/mL (≈ 102 µM)
CC1CN=C(NCc2ccccc2Cl)S1 (centres undefined)	> 36.1 µg/mL
NC(=O)c1c(NC(=O)c2ccc(F)cc2Cl)sc2c1CCC2	1 µg/mL (≈ 2.95 µM)
O=C(O)c1ccccc1-c1ccccc1C(=O)Nc1nc2ccccc2s1	> 56.2 µg/mL
C/C=C/COC(=O)C1=C(C)NC(=O)NC1c1ccc2c(c1)OCO2 (centres undefined)	15.5 µg/mL (≈ 46.9 µM)
O=C(NCc1ccc2c(c1)OCO2)c1ccc(Br)o1	> 48.6 µg/mL
CCC(=O)Oc1ccc(C2NC(=O)c3ccccc3O2)cc1OC (centres undefined)	28.5 µg/mL (≈ 87.1 µM)
CN1C(=O)/C(=C/c2ccc(O)c([N+](=O)[O-])c2)N(C)C1=S	4.5 µg/mL (≈ 15.3 µM)
Cc1c(CCOC(=O)c2ccc(Cl)cc2Cl)sc[n+]1CC(=O)c1ccc(Br)cc1.[Br-]	40.6 µg/mL
O=C(Nc1ccccc1C(=O)Nc1cccnc1)c1ccccc1	6.3 µg/mL (≈ 19.9 µM)
O=C(COC(=O)c1ccc2c(c1)OCCO2)NCc1ccccc1Cl	5.2 µg/mL (≈ 14.4 µM)
c1coc(CSc2ncnc3c2oc2ccccc23)c1	0.9 µg/mL (≈ 3.19 µM)
NC(=O)c1ccsc1NC(=O)COC(=O)c1cccnc1Cl	4.7 µg/mL (≈ 13.8 µM)
CCCOc1ccc(Cn2c(=O)oc3ccc(C)cc32)cc1	< 0.6 µg/mL
CC(=O)NCc1ccc(S(=O)(=O)N2CCCN(C)CC2)cc1.Cl	> 54.3 µg/mL
COCCCNC1CS(=O)(=O)CC1O.Cl (centres undefined)	> 39 µg/mL
CN(CC(=O)Nc1c(Cl)cccc1Cl)C(=O)c1cccn1C	> 51 µg/mL
Cc1ccc(O)c(NC(=O)c2cc(-c3cccs3)on2)c1	0.6 µg/mL (≈ 2 µM)
CCC1Oc2ccccc2N(CC(=O)NC2CCCCC2)C1=O (centres undefined)	43.9 µg/mL (≈ 139 µM)
CC(=O)N1CCc2cc(S(=O)(=O)NC3CCCCC3)ccc21	6.4 µg/mL (≈ 19.8 µM)
CC(=O)N(Cc1cc(=O)[nH]c2ccccc12)c1ccc(C)cc1C	> 48.1 µg/mL
Cc1ccc(N2CCN(S(=O)(=O)N3CCCCC3)CC2)c(C)c1	3.8 µg/mL (≈ 11.3 µM)

SMILES	solubility kinetic
CC1=C([N+](=O)[O-])C(c2ccccc2Cl)NC(=O)N1C (centres undefined)	> 42.3 µg/mL
C[C@@H]1C2CC(C/C2=N\NC(=O)c2ccncc2)C1(C)C (some centres undefined)	> 40.7 µg/mL
COc1ccc(C(=O)Nc2ccc(Nc3ccccc3)cc2)cc1[N+](=O)[O-]	< 0.3 µg/mL
CCn1c(SCC(=O)NC2CCCC2)nnc1-c1ccco1	> 48.1 µg/mL
COc1ccc(S(=O)(=O)NCC2CCCO2)cc1Cl (centres undefined)	34.2 µg/mL (≈ 112 µM)
Cc1cccnc1Nc1nc(-c2ccc(F)cc2)cs1	0.3 µg/mL (≈ 1.05 µM)
CO/N=C/c1c(-c2ccc(Cl)cc2)nc2cc(C)ccn12	0.3 µg/mL (≈ 1 µM)
O=C(COc1ccccc1)NCC(=O)N1CCCCCC1	> 43.6 µg/mL
Nc1ccc(-c2ccc(N)c([N+](=O)[O-])c2)cc1[N+](=O)[O-]	0.2 µg/mL (≈ 0.729 µM)
O=C(O)CN1C(=O)C(=O)N(Cc2c(F)cccc2Cl)C1=O	45.5 µg/mL (≈ 145 µM)
Cl.NC(c1ccccc1)c1ccncc1 (centres undefined)	> 38.6 µg/mL
COc1ccc2nc(SCC(=O)C(C)(C)C)[nH]c2c1	30.9 µg/mL (≈ 111 µM)
COc1ccccc1N(CC(=O)N1CCCC1)S(=O)(=O)c1cc([N+](=O)[O-])ccc1Cl	6.8 µg/mL (≈ 15 µM)
COc1ccc2oc(C(=O)NC(C)c3ccccn3)c(C)c2c1 (centres undefined)	> 46.6 µg/mL
CC1=CC2=NC(=O)/C(=C/c3cccn3Cc3ccccc3)C(=N)N2O1	2.7 µg/mL (≈ 8.12 µM)
O=C1/C(=C/c2ccncc2)SC(=S)N1Cc1ccccc1	1.7 µg/mL (≈ 5.44 µM)
CC(C)N1CN(c2ccccc2)C(=S)N(c2ccccc2)C1	> 46.7 µg/mL
COc1cc(-c2nc3ccccn3c2N)ccc1O	> 38.3 µg/mL
O=[N+]([O-])c1ccc(SCCO)nc1SCCO	> 41.4 µg/mL
Nc1ccc(CCC(=O)N2CCCC2)cc1	> 32.7 µg/mL
CCOC(=O)c1c(-c2ccc(F)cc2)csc1/N=C/N(C)C	> 48.1 µg/mL
CCOc1ccc(CNC(=O)CCc2cn(C)c3ccccc23)cc1	2.1 µg/mL (≈ 6.24 µM)
COc1ccc(NC(=O)CSc2nnc(N)s2)c([N+](=O)[O-])c1	> 51.2 µg/mL
